US9040528B2, “Chemical compounds 542” (AstraZeneca AB, priority 2008, dated 2015)
Like-named read-outs stand apart in the source and are kept apart here.

Biological target: Escherichia coli DNA gyrase A/B tetramer (Escherichia coli (strain K12), UniProt P0AES4+P0AES6)
Assay: DNA gyrase supercoiling activity fluorescence polarisation assay
Assay type: biochemical
Summary of the method: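 Supercoiling reactions quenched with 40 nM 5′-BODIPY-FL triplex-forming oligonucleotide probe in pH 3.5 NaCl/sodium acetate buffer; after 60 min, fluorescence anisotropy read (ex 485/em 535 nm). IC50 by nonlinear regression, normalised to 0.8% DMSO (100% activity) and 5 μM ciprofloxacin (0% activity).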

[1] = 5 nM enzyme, relaxed plasmid, 0.3 mM ATP, ambient temperature, read-out: E. coli DNA gyrase supercoiling IC50

Structure (SMILES): CC(=O)N1CCN(c2noc3c(F)c4c(cc23)CC2(C(=O)NC(=O)NC2=O)[C@H]2[C@H](C)O[C@H](C)CN42)CC1 (relative stereo) [Example 8, (2R,4S,4aS)-rel-8-(4-acetylpiperazin-1-yl)-11-fluoro-2,4-dimethyl-1,2,4,4a-tetrahydro-2′H,6H-spiro[isoxazolo[4,5-g][1,4]oxazino[4,3-a]quinoline-5,5′-pyrimidine]-2′,4′,6′(1′H,3′H)-trione]
- IC50 [1]: 8300 nM

Structure (SMILES): C[C@@H]1CN2c3c(cc4c(N)noc4c3F)CC3(C(=O)NC(=O)NC3=O)[C@H]2[C@H](C)O1 (relative stereo) [Example 1, (2R,4S,4aS)-rel-8-amino-11-fluoro-2,4-dimethyl-1,2,4,4a-tetrahydro-2′H,6H-spiro[isoxazolo[4,5-g][1,4]oxazino[4,3-a]quinoline-5,5′-pyrimidine]-2′,4′,6′(1′H,3′H)-trione]
- IC50 [1]: 500 nM

Structure (SMILES): CC(C)NC(=O)c1noc2c(F)c3c(cc12)CC1(C(=O)NC(=O)NC1=O)[C@H]1[C@H](C)O[C@H](C)CN31 [Example 147(a), (2R,4S,4aS)-11-fluoro-N-isopropyl-2,4-dimethyl-2′,4′,6′-trioxo-2,2′,3′,4,4a,4′,6,6′-octahydro-1H,1′H-spiro[isoxazolo[4,5-g][1,4]oxazino[4,3-a]quinoline-5,5′-pyrimidine]-8-carboxamide]
- IC50 [1]: 900 nM

Structure (SMILES): C[C@@H]1CN2c3c(cc4c(-c5ncccn5)noc4c3Cl)CC3(C(=O)NC(=O)NC3=O)[C@H]2[C@H](C)O1 (racemic) [Example 42, (2R,4S,4 aS)-rel-11-chloro-2,4-dimethyl-8-(pyrimidin-2-yl)-1,2,4,4a-tetrahydro-2′H,6H-spiro[1,4-oxazino[4,3-a][1,2]oxazolo[4,5-g]quinoline-5,5′-pyrimidine]-2′,4′,6′(1′H,3′H)-trione]
- IC50 [1]: 1200 nM

Structure (SMILES): CNC(=O)c1cnn(-c2noc3c(F)c4c(cc23)CC2(C(=O)NC(=O)NC2=O)[C@H]2[C@H](C)O[C@H](C)CN42)c1 (relative stereo) [Example 188, 1-[(2R,4S,4aS)-rel-11-fluoro-2,4-dimethyl-2′,4′,6′-trioxo-1,1′,2,3′,4,4′,4a,6′-octahydro-2′H,6H-spiro[1,4-oxazino[4,3-a][1,2]oxazolo[4,5-g]quinoline-5,5′-pyrimidin]-8-yl]-N-methyl-1H-pyrazole-4-carboxamide]
- IC50 [1]: 2700 nM

Structure (SMILES): C[C@@H]1CN2c3c(cc4c(-c5cncs5)noc4c3Cl)CC3(C(=O)NC(=O)NC3=O)[C@H]2[C@H](C)O1 (relative stereo) [Example 41, (2R,4S,4aS)-rel-11-chloro-2,4-dimethyl-8-(1,3-thiazol-5-yl)-1,2,4,4a-tetrahydro-2′H,6H-spiro[1,4-oxazino[4,3-a][1,2]oxazolo[4,5-g]quinoline-5,5′-pyrimidine]-2′,4′,6′(1′H,3′H)-trione]
- IC50 [1]: 800 nM

Structure (SMILES): C[C@@H]1CN2c3c(cc4c(-n5cc(C(N)=O)cn5)noc4c3F)CC3(C(=O)NC(=O)NC3=O)[C@H]2[C@H](C)O1 (relative stereo) [Example 189, 1-[(2R,4S,4aS)-rel-11-fluoro-2,4-dimethyl-2′,4′,6′-trioxo-1,1′,2,3′,4,4′,4a,6′-octahydro-2′H,6H-spiro[1,4-oxazino[4,3-a][1,2]oxazolo[4,5-g]quinoline-5,5′-pyrimidin]-8-yl]-1H-pyrazole-4-carboxamide]
- IC50 [1]: 2200 nM

Structure (SMILES): C[C@@H]1CN2c3c(cc4c(-c5cnccn5)noc4c3Cl)CC3(C(=O)NC(=O)NC3=O)[C@H]2[C@H](C)O1 (racemic) [Example 120, (2R,4 S,4 aS)-rel-11-chloro-2,4-dimethyl-8-(pyrazin-2-yl)-2,4,4a,6-tetrahydro-1H,1′H-spiro[isoxazolo[4,5-g][1,4]oxazino[4,3-a]quinoline-5,5′-pyrimidine]-2′,4′,6′(3′H)-trione]
- IC50 [1]: 200 nM

Structure (SMILES): C[C@@H]1CN2c3c(cc4c(-c5ccco5)noc4c3F)CC3(C(=O)NC(=O)NC3=O)[C@H]2[C@H](C)O1 (relative stereo) [Example 97, (2R,4S,4aS)-rel-11-fluoro-8-(furan-2-yl)-2,4-dimethyl-2,4,4a,6-tetrahydro-1H,1′H-spiro[isoxazolo[4,5-g][1,4]oxazino[4,3-a]quinoline-5,5′-pyrimidine]-2′,4′,6′(3′H)-trione]
- IC50 [1]: 700 nM

Structure (SMILES): COCc1noc2c(Cl)c3c(cc12)CC1(C(=O)NC(=O)NC1=O)[C@H]1[C@H](C)O[C@H](C)CN31 (relative stereo) [Example 49, (2R,4S,4aS)-rel-11-chloro-8-(methoxymethyl)-2,4-dimethyl-1,2,4,4a-tetrahydro-2′H,6H-spiro[1,4-oxazino[4,3-a][1,2]oxazolo[4,5-g]quinoline-5,5′-pyrimidine]-2′,4′,6′(1′H,3′H)-trione]
- IC50 [1]: 1700 nM

Structure (SMILES): C[C@@H]1CN2c3c(cc4c(NCC5CCCCC5)noc4c3F)CC3(C(=O)NC(=O)NC3=O)[C@H]2[C@H](C)O1 (relative stereo) [Example 18, (2R,4S,4aS)-rel-8-[(cyclohexylmethyl)amino]-11-fluoro-2,4-dimethyl-1,2,4,4a-tetrahydro-2′H,6H-spiro[1,4-oxazino[4,3-a][1,2]oxazolo[4,5-g]quinoline-5,5′-pyrimidine]-2′,4′,6′(1′H,3′H)-trione]
- IC50 [1]: 2900 nM

Structure (SMILES): C[C@@H]1CN2c3c(nc4c(-c5ccc(C(N)=O)nc5)noc4c3Cl)CC3(C(=O)NC(=O)NC3=O)[C@H]2[C@H](C)O1 (relative stereo) [Example 123, 5-((2R,4S,4aS)-rel-11-chloro-2,4-dimethyl-2′,4′,6′-trioxo-2,2′,3′,4,4a,4′,6,6′-octahydro-1H,1′H-spiro[isoxazolo[4,5-g][1,4]oxazino[4,3-a][1,5]naphthyridine-5,5′-pyrimidine]-8-yl)picolinamide]
- IC50 [1]: 5800 nM

Structure (SMILES): C[C@@H]1CN2c3c(cc4c(C(F)F)noc4c3F)CC3(C(=O)NC(=O)NC3=O)[C@H]2[C@H](C)O1 (racemic) [Example 93, (2R,4S,4 aS)-rel-8-(difluoromethyl)-11-fluoro-2,4-dimethyl-2,4,4a,6-tetrahydro-1H,1′H-spiro[isoxazolo[4,5-g][1,4]oxazino[4,3-a]quinoline-5,5′-pyrimidine]-2′,4′,6′(3′H)-trione]
- IC50 [1]: 700 nM

Structure (SMILES): C[C@@H]1CN2c3c(cc4c(C(=O)NCc5cccs5)noc4c3F)CC3(C(=O)NC(=O)NC3=O)[C@H]2[C@H](C)O1 (relative stereo) [Example 154, (2R,4S,4aS)-rel-11-fluoro-2,4-dimethyl-2′,4′,6′-trioxo-N-(thiophen-2-ylmethyl)-2,2′,3′,4,4a,4′,6,6′-octahydro-1H,1′H-spiro[isoxazolo[4,5-g][1,4]oxazino[4,3-a]quinoline-5,5′-pyrimidine]-8-carboxamide]
- IC50 [1]: 1500 nM

Structure (SMILES): C[C@@H]1CN2c3c(nc4c(C(=O)NCc5ccccc5)noc4c3Cl)CC3(C(=O)NC(=O)NC3=O)[C@H]2[C@H](C)O1 (relative stereo) [Example 131, (2R,4S,4aS)-rel-N-benzyl-11-chloro-2,4-dimethyl-2′,4′,6′-trioxo-2,2′,3′,4,4a,4′,6,6′-octahydro-1H,1′H-spiro[isoxazolo[4,5-g][1,4]oxazino[4,3-a][1,5]naphthyridine-5,5′-pyrimidine]-8-carboxamide]
- IC50 [1]: 4400 nM

Structure (SMILES): CCNC(=O)c1noc2c(Cl)c3c(nc12)CC1(C(=O)NC(=O)NC1=O)[C@H]1[C@H](C)O[C@H](C)CN31 (relative stereo) [Example 126, (2R,4S,4aS)-rel-11-chloro-N-ethyl-2,4-dimethyl-2′,4′,6′-trioxo-2,2′,3′,4,4a,4′,6,6′-octahydro-1H,1′H-spiro[isoxazolo[4,5-g][1,4]oxazino[4,3-a][1,5]naphthyridine-5,5′-pyrimidine]-8-carboxamide]
- IC50 [1]: 500 nM

Structure (SMILES): Cc1ncsc1-c1noc2c(F)c3c(cc12)CC1(C(=O)NC(=O)NC1=O)[C@@H]1[C@@H](C)O[C@@H](C)CN31 (relative stereo) [Example 71, (2R,4S,4aS)-rel-11-fluoro-2,4-dimethyl-8-(4-methyl-1,3-thiazol-5-yl)-1,2,4,4a-tetrahydro-2′H,6H-spiro[1,4-oxazino[4,3-a][1,2]oxazolo[4,5-g]quinoline-5,5′-pyrimidine]-2′,4′,6′(1′H,3′H)-trione]
- IC50 [1]: 900 nM

Structure (SMILES): CNC(=O)c1noc2c(F)c3c(cc12)CC1(C(=O)NC(=O)NC1=O)[C@H]1[C@H](C)O[C@H](C)CN31 [Example 140(a), (2R,4S,4aS)-11-fluoro-N,2,4-trimethyl-2′,4′,6′-trioxo-2,2′,3′,4,4a,4′,6,6′-octahydro-1H,1′H-spiro[isoxazolo[4,5-g][1,4]oxazino[4,3-a]quinoline-5,5′-pyrimidine]-8-carboxamide]
- IC50 [1]: 900 nM

Structure (SMILES): C[C@@H]1CN2c3c(cc4c(OC(=O)OC(C)(C)C)noc4c3F)CC3(C(=O)NC(=O)NC3=O)[C@H]2[C@H](C)O1 (relative stereo) [Example 102, tert-butyl(2R,4S,4aS)-rel-11-fluoro-2,4-dimethyl-2′,4′,6′-trioxo-1,1′,2,3′,4,4′,4a,6′-octahydro-2′H,6H-spiro[isoxazolo[4,5-g][1,4]oxazino[4,3-a]quinoline-5,5′-pyrimidin]-8-yl carbonate]
- IC50: 2700 nM

Structure (SMILES): CCNC(=O)c1noc2c(F)c3c(cc12)CC1(C(=O)NC(=O)NC1=O)[C@H]1[C@H](C)O[C@H](C)CN31 (racemic) [Example 138, (2R,4 S,4 aS)-rel-N-ethyl-11-fluoro-2,4-dimethyl-2′,4′,6′-trioxo-2,2′,3′,4,4a,4′,6,6′-octahydro-1H,1′H-spiro[isoxazolo[4,5-g][1,4]oxazino[4,3-a]quinoline-5,5′-pyrimidine]-8-carboxamide]
- IC50 [1]: 1700 nM

Structure (SMILES): C[C@@H]1CN2c3c(cc4c(-c5ccccn5)noc4c3F)CC3(C(=O)NC(=O)NC3=O)[C@H]2[C@H](C)O1 (relative stereo) [Example 5, (2R,4S,4aS)-rel-11-fluoro-2,4-dimethyl-8-pyridin-2-yl-1,2,4,4a-tetrahydro-2′H,6H-spiro[isoxazolo[4,5-g][1,4]oxazino[4,3-a]quinoline-5,5′-pyrimidine]-2′,4′,6′(1′H,3′H)-trione]
- IC50 [1]: 200 nM
